Values joined by “and” are separate entries in the source; they are usually repeats but may differ in a detail not shown here. Identical values can stand only once. Inconclusive results and toxic doses are left out. Peptide text beside a SMILES is read from it. * marks the point of attachment. Cbz = O=C(OCc1ccccc1)*
Test system: P388 leukemia ip, CD2F1 mice, survival T/C
Assay: NCI In Vivo Anticancer Drug Screen. Data for tumor model P388 Leukemia (intraperitoneal) in CD2F1 (CDF1) mice
Settings: endpoint: median survival time, higher = longer survival
Outline: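 Mice carrying the transplanted tumor received test compound or vehicle. Survival was recorded in each group, and the value is the treated-group measurement divided by that of the vehicle-treated control group.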

[1] = dose: 60.0 mg/kg/injection, schedule: Q01DX005 (ip), vehicle: saline with Tween-80
[2] = dose: 120.0 mg/kg/injection, schedule: Q01DX005 (ip), vehicle: saline with Tween-80
[3] = dose: 240.0 mg/kg/injection, schedule: Q01DX005 (ip), vehicle: saline with Tween-80
[4] = dose: 50.0 mg/kg/injection, schedule: Q01DX009 (ip), vehicle: saline
[5] = dose: 100.0 mg/kg/injection, schedule: Q01DX009 (ip), vehicle: saline
[6] = dose: 50.0 mg/kg/injection, schedule: Q01DX009 (ip), vehicle: saline with Tween-80
[7] = dose: 100.0 mg/kg/injection, schedule: Q01DX009 (ip), vehicle: saline with Tween-80
[8] = dose: 200.0 mg/kg/injection, schedule: Q01DX009 (ip), vehicle: saline with Tween-80
[9] = dose: 50.0 mg/kg/injection, schedule: Q01DX005 (ip), vehicle: Klucel (hydroxypropylcellulose) (HPC)
[10] = dose: 100.0 mg/kg/injection, schedule: Q01DX005 (ip), vehicle: Klucel (hydroxypropylcellulose) (HPC)
[11] = dose: 200.0 mg/kg/injection, schedule: Q01DX005 (ip), vehicle: Klucel (hydroxypropylcellulose) (HPC)
[12] = dose: 25.0 mg/kg/injection, schedule: Q04DX003 (ip), vehicle: saline
[13] = dose: 50.0 mg/kg/injection, schedule: Q04DX003 (ip), vehicle: saline
[14] = dose: 100.0 mg/kg/injection, schedule: Q04DX003 (ip), vehicle: saline
[15] = dose: 200.0 mg/kg/injection, schedule: Q04DX003 (ip), vehicle: saline
[16] = dose: 50.0 mg/kg/injection, schedule: Q01DX005 (ip), vehicle: saline with Tween-80
[17] = dose: 100.0 mg/kg/injection, schedule: Q01DX005 (ip), vehicle: saline with Tween-80
[18] = dose: 200.0 mg/kg/injection, schedule: Q01DX005 (ip), vehicle: saline with Tween-80

CC1CCC2(C)CCC3(C)C(=CCC4C5(C)CCC(Oc6ccc(O)cc6)C(C)(C)C5CCC43C)C2C1C(=O)O (stereo not drawn)
T/C (dose: 0.5 mg/kg/injection, schedule: Q01DX005 (ip), vehicle: DMSO): 101 % of control | T/C (dose: 1.0 mg/kg/injection, schedule: Q01DX005 (ip), vehicle: DMSO): 100 % of control | T/C (dose: 2.0 mg/kg/injection, schedule: Q01DX005 (ip), vehicle: DMSO): 101 % of control | T/C (dose: 4.0 mg/kg/injection, schedule: Q01DX005 (ip), vehicle: DMSO): 100 % of control

CC(=O)OCC1OC(N(C(C)=O)c2nc(Cl)c3cc[nH]c3n2)C(OC(C)=O)C1OC(C)=O (stereo not drawn)
T/C (dose: 25.0 mg/kg/injection, schedule: Q04DX003 (ip), vehicle: other): 102 % of control | T/C (dose: 50.0 mg/kg/injection, schedule: Q04DX003 (ip), vehicle: other): 105 % of control | T/C (dose: 100.0 mg/kg/injection, schedule: Q04DX003 (ip), vehicle: other): 105 % of control | T/C (dose: 200.0 mg/kg/injection, schedule: Q04DX003 (ip), vehicle: other): 104 % of control | T/C (dose: 400.0 mg/kg/injection, schedule: Q04DX003 (ip), vehicle: other): 108 % of control

O=S1(=O)CCCN1c1ccccn1
T/C [1]: 102 % of control | T/C [2]: 105 % of control | T/C [3]: 101 % of control

N#CC(C(=O)CCc1nc2ccccc2[nH]1)c1nc2ccccc2s1 (stereo not drawn)
T/C [1]: 102 % of control | T/C [2]: 100 % of control | T/C [3]: 105 % of control

Cc1cn2c(n1)Nc1sc3c(c1C2)CCCC3
T/C [1]: 101 % of control | T/C [2]: 103 % of control | T/C [3]: 100 % of control

CC([NH-])C[NH-].[I][Pt+2][I] (stereo not drawn)
T/C (dose: 100.0 mg/kg/injection, schedule: Q04DX002 (ip), vehicle: saline with Tween-80): 154 % of control and 151 % of control

O=C(Nc1ccccc1)NC1CCCCCC1
T/C [4]: 93 % of control | T/C [5]: 98 % of control | T/C (dose: 200.0 mg/kg/injection, schedule: Q01DX009 (ip), vehicle: saline): 87 % of control

CCCCCCCC/C=C\CCCCCCCC(=O)OCCN(CCOC(=O)CCCCCCC/C=C/CCCCCCCC)C(=O)COC(=O)CCCCCCC/C=C\CCCCCCCC
T/C [6]: 104 % of control | T/C [7]: 104 % of control | T/C [8]: 104 % of control

CCN(CC)C(C)CN1c2ccccc2Sc2ccccc21 (stereo not drawn)
T/C (dose: 50.0 mg/kg/injection, schedule: Q01DX005 (ip), vehicle: saline): 100 % of control | T/C (dose: 100.0 mg/kg/injection, schedule: Q01DX005 (ip), vehicle: saline): 99 % of control | T/C (dose: 200.0 mg/kg/injection, schedule: Q01DX005 (ip), vehicle: saline): 100 % of control

CC(C)N(C(=S)/N=C1/SCS(=O)(=O)N1C)C(C)C
T/C (dose: 50.0 mg/kg/injection, schedule: Q04DX003 (ip), vehicle: saline with Tween-80): 101 % of control | T/C (dose: 100.0 mg/kg/injection, schedule: Q04DX003 (ip), vehicle: saline with Tween-80): 104 % of control | T/C (dose: 200.0 mg/kg/injection, schedule: Q04DX003 (ip), vehicle: saline with Tween-80): 104 % of control

c1ncc2n[pH]nc2n1 (stereo not drawn)
T/C (dose: 60.0 mg/kg/injection, schedule: Q01DX005 (ip), vehicle: saline): 95 % of control | T/C (dose: 120.0 mg/kg/injection, schedule: Q01DX005 (ip), vehicle: saline): 101 % of control | T/C (dose: 240.0 mg/kg/injection, schedule: Q01DX005 (ip), vehicle: saline): 96 % of control

Cc1cc2nc(CC(=O)c3ccncc3)c(=O)[nH]c2cc1C
T/C [1]: 95 % of control | T/C [2]: 87 % of control

O=C(O)C(Cc1ccc([N+](=O)[O-])cc1)NCc1ccco1 (stereo not drawn)
T/C [6]: 119 % of control | T/C [7]: 119 % of control

C=C(C)c1nc(N)nc(-c2ccc([N+](=O)[O-])cc2)n1
T/C (dose: 100.0 mg/kg/injection, schedule: Q04DX002 (ip), vehicle: Klucel (hydroxypropylcellulose) (HPC)): 88 % of control | T/C (dose: 200.0 mg/kg/injection, schedule: Q04DX002 (ip), vehicle: Klucel (hydroxypropylcellulose) (HPC)): 88 % of control | T/C (dose: 400.0 mg/kg/injection, schedule: Q04DX002 (ip), vehicle: Klucel (hydroxypropylcellulose) (HPC)): 88 % of control

C/C=C(\C)C(=O)N/N=C/c1cccc(OC)c1O
T/C [9]: 95 % of control | T/C [10]: 92 % of control | T/C [11]: 96 % of control

Oc1ccc(O)c(Cl)c1Cl
T/C (dose: 12.5 mg/kg/injection, schedule: Q01DX009 (ip), vehicle: saline): 105 % of control | T/C (dose: 25.0 mg/kg/injection, schedule: Q01DX009 (ip), vehicle: saline): 98 % of control | T/C [12]: 106 % of control and 113 % of control | T/C [4]: 96 % of control | T/C [13]: 100 % of control and 120 % of control | T/C [5]: 104 % of control | T/C (dose: 100.0 mg/kg/injection, schedule: Q04DX002 (ip), vehicle: saline + alcohol): 108 % of control | T/C [14]: 101 % of control and 118 % of control | T/C (dose: 200.0 mg/kg/injection, schedule: Q04DX002 (ip), vehicle: saline + alcohol): 108 % of control | T/C [15]: 105 % of control | T/C (dose: 400.0 mg/kg/injection, schedule: Q04DX002 (ip), vehicle: saline + alcohol): 99 % of control

CC1(c2ccccc2)CCOCO1 (stereo not drawn)
T/C [16]: 106 % of control | T/C [17]: 98 % of control | T/C [18]: 104 % of control

CC12CC3(C)CC(C)(C1)CC(C(Cl)C(=O)NC1CCCCC1)(C2)C3 (stereo not drawn)
T/C (dose: 50.0 mg/kg/injection, schedule: Q01DX009 (ip), vehicle: Klucel (hydroxypropylcellulose) (HPC)): 110 % of control | T/C (dose: 100.0 mg/kg/injection, schedule: Q01DX009 (ip), vehicle: Klucel (hydroxypropylcellulose) (HPC)): 107 % of control | T/C (dose: 200.0 mg/kg/injection, schedule: Q01DX009 (ip), vehicle: Klucel (hydroxypropylcellulose) (HPC)): 97 % of control

CCN(CC)CCNCc1cc(Cl)c2cccnc2c1O
T/C [4]: 93 % of control | T/C [5]: 106 % of control

CC(C)N1C(=O)c2ccccc2S12c1ccccc1C(=O)N2C(C)C
T/C (dose: 100.0 mg/kg/injection, schedule: Q04DX003 (ip), vehicle: Klucel (hydroxypropylcellulose) (HPC)): 93 % of control | T/C (dose: 200.0 mg/kg/injection, schedule: Q04DX003 (ip), vehicle: Klucel (hydroxypropylcellulose) (HPC)): 90 % of control | T/C (dose: 400.0 mg/kg/injection, schedule: Q04DX003 (ip), vehicle: Klucel (hydroxypropylcellulose) (HPC)): 90 % of control

Cc1ccc(S(=O)(=O)C23N=NC(C)(C)C2C2CCC3C2)cc1 (stereo not drawn)
T/C (dose: 60.0 mg/kg/injection, schedule: Q01DX005 (ip), vehicle: Klucel (hydroxypropylcellulose) (HPC)): 102 % of control | T/C (dose: 120.0 mg/kg/injection, schedule: Q01DX005 (ip), vehicle: Klucel (hydroxypropylcellulose) (HPC)): 104 % of control | T/C (dose: 240.0 mg/kg/injection, schedule: Q01DX005 (ip), vehicle: Klucel (hydroxypropylcellulose) (HPC)): 102 % of control

COc1cccc(/C=N/NP(=S)(Oc2ccc(C(C)(C)C)cc2)Oc2ccc(C(C)(C)C)cc2)c1OC
T/C [16]: 98 % of control | T/C [17]: 95 % of control | T/C [18]: 100 % of control

CC(O)C(NC(=O)OCc1ccccc1)C(=O)NC(Cc1ccccc1)C(=O)O (stereo not drawn) (Cbz-Thr-Phe-OH; configuration not given here)
T/C [9]: 100 % of control | T/C [10]: 101 % of control | T/C [11]: 101 % of control

COC(=O)C(C)n1c(C(C)C)csc1=S (stereo not drawn)
T/C [16]: 111 % of control | T/C [17]: 110 % of control | T/C [18]: 98 % of control

CC(C)(C)c1ccc(C(=O)O)c(O)c1.CC(C)(C)c1ccc(C(=O)O)c(O)c1.[Cu]
T/C (dose: 12.5 mg/kg/injection, schedule: Q04DX003 (ip), vehicle: saline): 102 % of control | T/C [12]: 94 % of control | T/C [13]: 103 % of control

Nc1ccncc1C(=O)O
T/C [6]: 99 % of control | T/C [7]: 99 % of control | T/C [8]: 96 % of control

CC(=O)NC1=C(C#N)CCCC1
T/C [14]: 101 % of control | T/C [15]: 104 % of control | T/C (dose: 400.0 mg/kg/injection, schedule: Q04DX003 (ip), vehicle: saline): 100 % of control

BrCC1(CBr)OCCO1
T/C [6]: 106 % of control
